We go through one compound from patent US6348477B1, “Anti-herpesvirus compounds and methods for identifying, making and using same” (Boehringer Ingelheim(Canada) Ltd., priority 1995, dated 2002).

Experiment [1] has as its system HCMV (strain AD169). Put plainly: Inhibition of HCMV replication, plaque reduction assay (PRA, Hs-68 cells). It is filed as cell-based, human cytomegalovirus. Particulars: Human betaherpesvirus 5, AD169, Hs68; Group 1 Table 1; read-out: PRA CMV EC50. The method, boiled down: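 Hs-68 cells infected with about 50 PFU HCMV AD169 (2 h adsorption, 37°), then incubated with compound in 5% inactivated-FBS medium for 4 days, refed with fresh compound, 4 more days. Crystal violet-stained plaques counted; EC50 from percent plaque reduction versus untreated.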

For experiment [2], the system named is HCMV (strain AD169). Put plainly: Inhibition of HCMV replication, ELISA assay (Hs-68 cells, p28). It is filed as cell-based, human cytomegalovirus. The note with it: Human betaherpesvirus 5, AD169, Hs68; Group 1 Table 1; read-out: ELISA CMV EC50. Put shortly:
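Hs-68 cells infected with HCMV AD169 at MOI 0.01 PFU/cell (2 h adsorption), washed, then incubated with compound for 8 days at 37° in DMEM/5% FBS. Late protein p28 detected in fixed cells by mAb UL99 ELISA (HRP/OPD, 450 nm). EC50 from % inhibition of replication.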

With `Nc1nc(-c2ccc(NC(=O)CN(CCc3ccccc3)C(=O)c3cccnc3)cc2)cs1` [Example 67], the concentration for a half-maximal effect (EC50) came to 93 µM with HCMV (strain AD169) [1] and 2.1 µM with HCMV (strain AD169) [2].
